Patent US7491819B1 (priority 2004, dated 2009)

biological target: T1, HIV-integrase (Human immunodeficiency virus type 1 group M subtype B, UniProt P12497); assay: HIV-Integrase Inhibition Activity (SPA bead strand-transfer assay); assay type: biochemical; conditions: Table 1; read-out: Activity (HIV-integrase inhibition, IC50 class)
T1 construct: Recombinant integrase (0.26 ng) was incubated with the beads
Description: HIV-Integrase Inhibition Activity. To evaluate in-vitro activity against HIV-integrase, 5 pmole of biotin labeled substrate DNA was bound to 100 μg of Streptavidin coated PVT SPA beads (Amersham Pharmacia Biotech). Recombinant integrase (0.26 ng) was incubated with the beads for 90 min at 37° C. Unbound enzyme was removed by washing the complex followed by addition of inhibitors and 0.1 fmol of P33 labeled target DNA. The reaction was stopped by adding EDTA to a final concentration of 10 mM. Samples were counted in TopCountNXT (Packard) and the CPM was used as a measure of integration. The reaction condition was as described in A. Engelman and R. Craigie, J. Virol 69, 5908-5911 (1995). The sequences of substrate and target DNA were described in Nucleic Acid Research 22, 1121-1122 (1994).

Row | SMILES | IC50
1 | CC1(C)OCCn2c1nc(C(=O)NCc1ccc(Cl)cc1Cl)c(O)c2=O [Example 271, Pyrimido[2,1-c][1,4]oxazine-2-carboxamide, N-[(2,4-dichlorophenyl)methyl]-4,6,7,9-tetrahydro-3-hydroxy-9,9-dimethyl-4-oxo-] | 2 to 100 nM
2 | COc1ccccc1CNC(=O)c1nc2n(c(=O)c1O)CCOC2(C)C [Example 242, Pyrimido[2,1-c][1,4]oxazine-2-carboxamide, 4,6,7,9-tetrahydro-3-hydroxy-N-[(2-methoxyphenyl)methyl]-9,9-dimethyl-4-oxo-] | 2 to 100 nM
3 | CC1(C)OCCn2c1nc(C(=O)NCc1ccccc1-c1ccncc1)c(O)c2=O [Example 190, Pyrimido[2,1-c][1,4]oxazine-2-carboxamide, 4,6,7,9-tetrahydro-3-hydroxy-9,9-dimethyl-4-oxo-N-[[2-(4-pyridinyl)phenyl]methyl]-] | 2 to 100 nM
4 | CC1(C)OCCn2c1nc(C(=O)NCc1ccc(F)cc1N1CCOC1=O)c(O)c2=O [Example 127, N-(4-Fluoro-2-(2-oxooxazolidin-3-yl)benzyl)-3-hydroxy-9,9-dimethyl-4-oxo-4,6,7,9-tetrahydropyrimido[2,1-c][1,4]oxazine-2-carboxamide] | 2 to 100 nM
5 | C[S+]([O-])c1ccccc1CNC(=O)c1nc2n(c(=O)c1O)CCOC2(C)C (centres unmarked) [Example 113, Pyrimido[2,1-c][1,4]oxazine-2-carboxamide, 4,6,7,9-tetrahydro-3-hydroxy-9,9-dimethyl-N-[[2-(methylsulfinyl)phenyl]methyl]-4-oxo-] | 2 to 100 nM
6 | CCCn1cc(-c2ccccc2CNC(=O)c2nc3n(c(=O)c2O)CCOC3(C)C)cn1 [Example 158, Pyrimido[2,1-c][1,4]oxazine-2-carboxamide, 4,6,7,9-tetrahydro-3-hydroxy-9,9-dimethyl-4-oxo-N-[[2-(1-propyl-1H-pyrazol-4-yl)phenyl]methyl]-] | 2 to 100 nM
7 | Cc1ccc(CNC(=O)c2nc3n(c(=O)c2O)CCOC3(C)C)cc1C [Example 31, Pyrimido[2,1-c][1,4]oxazine-2-carboxamide, N-[(3,4-dimethylphenyl)methyl]-4,6,7,9-tetrahydro-3-hydroxy-9,9-dimethyl-4-oxo-] | 2 to 100 nM
8 | CC1(C)OCCn2c1nc(C(=O)NCc1ccc(F)cc1-c1ccc[nH]c1=O)c(O)c2=O [Example 78, Pyrimido[2,1-c][1,4]oxazine-2-carboxamide, N-[[2-(1,2-dihydro-2-oxo-3-pyridinyl)-4-fluorophenyl]methyl]-4,6,7,9-tetrahydro-3-hydroxy-9,9-dimethyl-4-oxo-] | 2 to 100 nM
9 | Cc1ncn(-c2cc(F)ccc2CNC(=O)c2nc3n(c(=O)c2O)CCOC3(C)C)n1 [Example 81, Pyrimido[2,1-c][1,4]oxazine-2-carboxamide, N-[[4-fluoro-2-(3-methyl-1H-1,2,4-triazol-1-yl)phenyl]methyl]-4,6,7,9-tetrahydro-3-hydroxy-9,9-dimethyl-4-oxo-] | 2 to 100 nM
10 | CC1(C)OCCn2c1nc(C(=O)NCc1ccccc1S(C)(=O)=O)c(O)c2=O [Example 114, Pyrimido[2,1-c][1,4]oxazine-2-carboxamide, 4,6,7,9-tetrahydro-3-hydroxy-9,9-dimethyl-N-[[2-(methylsulfonyl)phenyl]methyl]-4-oxo-] | 2 to 100 nM
11 | Cn1nnc(-c2cc(F)ccc2CNC(=O)c2nc3n(c(=O)c2O)CCOC3(C)C)n1 [Example 106, Pyrimido[2,1-c][1,4]oxazine-2-carboxamide, N-[[4-fluoro-2-(2-methyl-2H-tetrazol-5-yl)phenyl]methyl]-4,6,7,9-tetrahydro-3-hydroxy-9,9-dimethyl-4-oxo-] | 2 to 100 nM
12 | CC1(C)OCCn2c1nc(C(=O)NCc1ccccc1-c1cnc3ccccc3c1)c(O)c2=O [Example 194, Pyrimido[2,1-c][1,4]oxazine-2-carboxamide, 4,6,7,9-tetrahydro-3-hydroxy-9,9-dimethyl-4-oxo-N-[[2-(3-quinolinyl)phenyl]methyl]-] | 2 to 100 nM
13 | CC1(C)OCCn2c1nc(C(=O)NCc1ccccc1-c1ccc3c(c1)OCO3)c(O)c2=O [Example 187, Pyrimido[2,1-c][1,4]oxazine-2-carboxamide, N-[[2-(1,3-benzodioxol-5-yl)phenyl]methyl]-4,6,7,9-tetrahydro-3-hydroxy-9,9-dimethyl-4-oxo-] | 2 to 100 nM
14 | Cc1cc(-c2cc(F)ccc2CNC(=O)c2nc3n(c(=O)c2O)CCOC3(C)C)on1 [Example 210, Pyrimido[2,1-c][1,4]oxazine-2-carboxamide, N-[[4-fluoro-2-(3-methyl-5-isoxazolyl)phenyl]methyl]-4,6,7,9-tetrahydro-3-hydroxy-9,9-dimethyl-4-oxo-] | 2 to 100 nM
15 | CC1(C)OCCn2c1nc(C(=O)NCc1ccc(Cl)cn1)c(O)c2=O [Example 29, N-((5-Chloropyridin-2-yl)methyl)-3-hydroxy-9,9-dimethyl-4-oxo-4,6,7,9-tetrahydropyrimido[2,1-c][1,4]oxazine-2-carboxamide] | 2 to 100 nM
16 | CC1(C)OCCn2c1nc(C(=O)NCc1ccccc1)c(O)c2=O [Example 219, Pyrimido[2,1-c][1,4]oxazine-2-carboxamide, 4,6,7,9-tetrahydro-3-hydroxy-9,9-dimethyl-4-oxo-N-(phenylmethyl)-] | 2 to 100 nM
17 | CN(C)Cc1ccc(-c2ccccc2CNC(=O)c2nc3n(c(=O)c2O)CCOC3(C)C)cc1 [Example 178, Pyrimido[2,1-c][1,4]oxazine-2-carboxamide, N-[[4′-[(dimethylamino)methyl][1,1′-biphenyl]-2-yl]methyl]-4,6,7,9-tetrahydro-3-hydroxy-9,9-dimethyl-4-oxo-] | 2 to 100 nM
18 | Cc1cnc(-c2cc(F)ccc2CNC(=O)c2nc3n(c(=O)c2O)CCOC3(C)C)o1 [Example 86, Pyrimido[2,1-c][1,4]oxazine-2-carboxamide, N-[[4-fluoro-2-(5-methyl-2-oxazolyl)phenyl]methyl]-4,6,7,9-tetrahydro-3-hydroxy-9,9-dimethyl-4-oxo-] | 2 to 100 nM
19 | CN(C)c1ccc(CNC(=O)c2nc3n(c(=O)c2O)CCOC3(C)C)cc1 [Example 257, Pyrimido[2,1-c][1,4]oxazine-2-carboxamide, N-[[4-(dimethylamino)phenyl]methyl]-4,6,7,9-tetrahydro-3-hydroxy-9,9-dimethyl-4-oxo-] | 2 to 100 nM
20 | CC1(C)OCCn2c1nc(C(=O)NCc1cccc3c1OCCCO3)c(O)c2=O [Example 268, Pyrimido[2,1-c][1,4]oxazine-2-carboxamide, N-[(3,4-dihydro-2H-1,5-benzodioxepin-6-yl)methyl]-4,6,7,9-tetrahydro-3-hydroxy-9,9-dimethyl-4-oxo-] | 2 to 100 nM
21 | Cn1ccc2c(CNC(=O)c3nc4n(c(=O)c3O)CCOC4(C)C)cccc21 [Example 279, Pyrimido[2,1-c][1,4]oxazine-2-carboxamide, 4,6,7,9-tetrahydro-3-hydroxy-9,9-dimethyl-N-[(1-methyl-1H-indol-4-yl)methyl]-4-oxo-] | 2 to 100 nM
22 | Cc1ccc(CNC(=O)c2nc3n(c(=O)c2O)CCOC3C)cc1C (centres unmarked) [Example 8, Pyrimido[2,1-c][1,4]oxazine-2-carboxamide, N-[(3,4-dimethylphenyl)methyl]-4,6,7,9-tetrahydro-3-hydroxy-9-methyl-4-oxo-] | 2 to 100 nM
23 | CC1(C)OCCn2c1nc(C(=O)NCc1ccc(F)cc1N1CCCCC1=O)c(O)c2=O [Example 121, Pyrimido[2,1-c][1,4]oxazine-2-carboxamide, N-[[4-fluoro-2-(2-oxo-1-piperidinyl)phenyl]methyl]-4,6,7,9-tetrahydro-3-hydroxy-9,9-dimethyl-4-oxo-] | 2 to 100 nM
24 | CC1(C)OCCn2c1nc(C(=O)NCc1ccccc1N1C(=O)C=CC1=O)c(O)c2=O [Example 137, N-(2-(2,5-Dioxo-2H-pyrrol-1(5H)-yl)benzyl)-3-hydroxy-9,9-dimethyl-4-oxo-4,6,7,9-tetrahydropyrimido[2,1-c][1,4]oxazine-2-carboxamide] | 2 to 100 nM
25 | CC1(C)OCCn2c1nc(C(=O)NCc1ccccc1-c1cccc3ncccc13)c(O)c2=O [Example 197, Pyrimido[2,1-c][1,4]oxazine-2-carboxamide, 4,6,7,9-tetrahydro-3-hydroxy-9,9-dimethyl-4-oxo-N-[[2-(5-quinolinyl)phenyl]methyl]-] | 2 to 100 nM
26 | CC1(C)OCCn2c1nc(C(=O)NCc1cccc(F)c1F)c(O)c2=O [Example 238, Pyrimido[2,1-c][1,4]oxazine-2-carboxamide, N-[(2,3-difluorophenyl)methyl]-4,6,7,9-tetrahydro-3-hydroxy-9,9-dimethyl-4-oxo-] | 2 to 100 nM
27 | COc1ccc(CNC(=O)c2nc3n(c(=O)c2O)CCOC3(C)C)cc1Cl [Example 239, Pyrimido[2,1-c][1,4]oxazine-2-carboxamide, N-[(3-chloro-4-methoxyphenyl)methyl]-4,6,7,9-tetrahydro-3-hydroxy-9,9-dimethyl-4-oxo-] | 2 to 100 nM
28 | CC(=O)N1CCN(C(=O)c2ncn(-c3cc(F)ccc3CNC(=O)c3nc4n(c(=O)c3O)CCOC4(C)C)n2)CC1 [Example 66, Pyrimido[2,1-c][1,4]oxazine-2-carboxamide, N-[[2-[3-[(4-acetyl-1-piperazinyl)carbonyl]-1H-1,2,4-triazol-1-yl]-4-fluorophenyl]methyl]-4,6,7,9-tetrahydro-3-hydroxy-9,9-dimethyl-4-oxo-] | 2 to 100 nM
29 | CC1(C)OCCn2c1nc(C(=O)NCc1ccccc1N1CCC1=O)c(O)c2=O [Example 123, Pyrimido[2,1-c][1, 4]oxazine-2-carboxamide, 4,6,7,9-tetrahydro-3-hydroxy-9,9-dimethyl-4-oxo-N-[[2-(2-oxo-1-azetidinyl)phenyl]methyl]-] | 2 to 100 nM
